From patent US10457707B2, “Substituted urea depsipeptide analogs as activators of the CLPP endopeptidase” (priority 2015, dated 2019)
In brackets after ≈: the same amount, converted by molar mass. Read-outs that look alike come from different tables or passages of the source. *1 amine or outer side, *2 acyl side, *3 side chain or, on linkers, in order; H or OH if unused. Where a SMILES comes first, the peptide text is derived from it. Bridges are numbered along the chain shown (N, C = ends). [ ]: non-standard residue; d: D form. The star is where a group is joined. ξ: configuration not given here. NH(1,3-benzodioxol-5-yl) = c1cc2c(cc1N*)OCO2; Phe(3,5-F2) = N[C@@H](Cc1cc(F)cc(F)c1)C(=O)O; NH(1-Me-indolin-5-yl) = CN1CCc2cc(N*)ccc21; Morpholine(3S-CO) = O=C(O)[C@@H]1COCCN1; NH(4-Cl-2-F-phenyl) = Fc1cc(Cl)ccc1N*; Pro(4R-Me) = C[C@H]1CN[C@H](C(=O)O)C1; Hyp = O=C(O)[C@@H]1C[C@@H](O)CN1; NH(4-Me-phenyl) = Cc1ccc(N*)cc1; ξNMeThr = CNC(C(=O)O)[C@@H](C)O; aThr = C[C@H](O)[C@H](N)C(=O)O; Pip = O=C(O)[C@@H]1CCCCN1; CO = O=C([*:1])[*:2]

Columns and labels:
[1] = tested on: Enterococcus faecalis, ATCC 33186; test: Minimal inhibitory concentration assay (microbroth dilution); format: cell-based
Outline: (§1)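 Antibacterial activity was measured by CLSI-standard microdilution in broth, using overnight aerobic incubation at 37 °C. Growth inhibition was scored visually, and MIC taken as the lowest concentration preventing growth.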

Sa-ClpP = target: T1, Sa-ClpP (Staphylococcus aureus, UniProt Q2G036); test: Sa-ClpP casein-BODIPY ClpP activation assay, method variant not marked in Table 5; format: biochemical, S. aureus
T1 construct: made in house; host or cells: E. coli BL21(DE3)
T1 sequence (Q2G036 1-195): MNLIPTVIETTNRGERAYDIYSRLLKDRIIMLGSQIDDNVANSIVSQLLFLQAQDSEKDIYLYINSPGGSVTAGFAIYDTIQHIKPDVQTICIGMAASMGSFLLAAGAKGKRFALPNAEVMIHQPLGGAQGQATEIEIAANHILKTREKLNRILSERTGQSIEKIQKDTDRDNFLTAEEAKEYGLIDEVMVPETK
Outline: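 Purified S. aureus ClpP (10 μM) incubated with 25 μg/ml BODIPY FL casein and compound (0-1000 μM) in pH 8 Tris/KCl/TCEP at 37° C. Fluorescence (485/528 nm) read every 5 min over 45 min; reaction velocities fitted to dose-response for EC50 (50% activation), triplicate.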

[2] = tested on: Staphylococcus aureus, USA 300; test: Minimal inhibitory concentration assay; format: cell-based; conditions: USA300, read-out: Minimal Inhibitory Concentrations S. aureus USA 300
Outline: as §1

[3] = tested on: Staphylococcus aureus, USA 300 wherein ClpP is inactivated; test: Minimal inhibitory concentration assay; format: cell-based
Outline: as §1

[4] = Enterococcus faecalis, ATCC33186, read-out: Minimal Inhibitory Concentrations E. faecalis ATCC 33186
[5] = values without ** or † mark, assay variant not stated, read-out: ClpP Activation EC50
[6] = Enterococcus faecalis, ATCC33186; read-out: Minimal Inhibitory Concentrations E. faecalis ATCC 33186

SMILES | MIC [1, 4] | EC50 (Sa-ClpP; [5]) | MIC [2] | Minimal Inhibitory Concentrations S. aureus USA 300 ΔClpP [3] | MIC [1, 6] | EC50 (Sa-ClpP)
C[C@@H]1C[C@H]2C(=O)O[C@@H](C)[C@H](NC(=O)[C@H](Cc3cc(F)cc(F)c3)NC(=O)Nc3ccc4c(c3)CCN4C)C(=O)N3CCC[C@H]3C(=O)N3CCCC[C@H]3C(=O)N[C@@H](C)C(=O)N2C1 [Compound 310, (S)-3-(3,5-difluorophenyl)-2-(3-(1-methylindolin-5-yl)ureido)-N-((2R,6S,8aS,14aS,20S,21S,23aS)-2,6,21-trimethyl-5,8,14,19,23-pentaoxooctadecahydro-1H,5H,14H,19H-pyrido[2,1-i]dipyrrolo[2,1-c:2′,1′-l][1]oxa[4,7,10,13]tetraazacyclo-hexadecin-20-yl)propanamide] ({NH(1-Me-indolin-5-yl)-CO}-[Phe(3,5-F2)][aThr]P[Pip]A[Pro(4R-Me)]; ester 2-C) | 0.313 µM (≈ 0.266 µg/mL) | 440 ± 30 nM | 0.078 µM (≈ 0.0662 µg/mL) | >20 µM | – | –
C[C@@H]1C[C@H]2C(=O)O[C@@H](C)[C@H](NC(=O)[C@H](Cc3cc(F)cc(F)c3)NC(=O)Nc3ccc4c(c3)CCN4C)C(=O)N3CCC[C@H]3C(=O)N(C)C([C@@H](C)O)C(=O)N[C@@H](C)C(=O)N2C1 (stereo partly drawn) [Compound 311, (S)-3-(3,5-difluorophenyl)-N-((2R,6S,9R,11aS,17S,18S,20aS)-9-((R)-1-hydroxyethyl)-2,6,10,18-tetramethyl-5,8,11,16,20-pentaoxohexadecahydro-1H,5H,16H-dipyrrolo[2,1-c:2′,1′-l][1]oxa[4,7,10,13]tetraazacyclohexadecin-17-yl)-2-(3-(1-methylindolin-5-yl)ureido)propanamide] ({NH(1-Me-indolin-5-yl)-CO}-[Phe(3,5-F2)][aThr]P[ξNMeThr]A[Pro(4R-Me)]; ester 2-C) | 0.039 µM (≈ 0.0333 µg/mL) | 540 ± 20 nM | 0.156 µM (≈ 0.133 µg/mL) | >20 µM | – | –
C[C@@H]1C[C@H]2C(=O)O[C@@H](C)[C@H](NC(=O)[C@H](Cc3cc(F)cc(F)c3)NC(=O)Nc3ccc4c(c3)CCN4C)C(=O)N3CCC[C@H]3C(=O)N3CCOC[C@H]3C(=O)N[C@@H](C)C(=O)N2C1 [Compound 312, (S)-3-(3,5-difluorophenyl)-2-(3-(1-methylindolin-5-yl)ureido)-N-((6aS,12S,13S,15aS,17R,21S,23aS)-13,17,21-trimethyl-6,11,15,20,23-pentaoxooctadecahydro-6H,11H,15H-[1,4]oxazino[3,4-i]dipyrrolo[2,1-c:2′,1′-l][1]oxa[4,7,10,13]tetraazacyclo-hexadecin-12-yl)propanamide] ({NH(1-Me-indolin-5-yl)-CO}-[Phe(3,5-F2)][aThr]P[Morpholine(3S-CO)]A[Pro(4R-Me)]; ester 2-C) | 0.039 µM (≈ 0.0332 µg/mL) | 440 ± 20 nM | 0.156 µM (≈ 0.133 µg/mL) | >20 µM | – | –
C[C@@H]1C[C@H]2C(=O)O[C@@H](C)[C@H](NC(=O)[C@H](Cc3cc(F)cc(F)c3)NC(=O)Nc3ccc(Cl)cc3F)C(=O)N3CCC[C@H]3C(=O)N(C)C([C@@H](C)O)C(=O)N[C@@H](C)C(=O)N2C1 (stereo partly drawn) [Compound 313, (S)-2-(3-(4-chloro-2-fluorophenyl)ureido)-3-(3,5-difluorophenyl)-N-((2R,6S,9R,11aS,17S,18S,20aS)-9-((R)-1-hydroxyethyl)-2,6,10,18-tetramethyl-5,8,11,16,20-pentaoxohexadecahydro-1H,5H,16H-dipyrrolo[2,1-c:2′,1′-l][1]oxa[4,7,10,13]tetraazacyclohexadecin-17-yl)propanamide] ({NH(4-Cl-2-F-phenyl)-CO}-[Phe(3,5-F2)][aThr]P[ξNMeThr]A[Pro(4R-Me)]; ester 2-C) | – | – | < 0.02 µM | >20 µM | 0.039 µM (≈ 0.0332 µg/mL) | 340 ± 10 nM
C[C@@H]1C[C@H]2C(=O)O[C@@H](C)[C@H](NC(=O)[C@H](Cc3cc(F)cc(F)c3)NC(=O)Nc3ccc(Cl)cc3F)C(=O)N3CCC[C@H]3C(=O)N3CCOC[C@H]3C(=O)N[C@@H](C)C(=O)N2C1 [Compound 314, (S)-2-(3-(4-chloro-2-fluorophenyl)ureido)-3-(3,5-difluorophenyl)-N-((6aS,12S,13S,15aS,17R,21S,23aS)-13,17,21-trimethyl-6,11,15,20,23-pentaoxooctadecahydro-6H,11H,15H-[1,4]oxazino[3,4-i]dipyrrolo[2,1-c:2′,1′-l][1]oxa[4,7,10,13]tetraazacyclo-hexadecin-12-yl)propanamide] ({NH(4-Cl-2-F-phenyl)-CO}-[Phe(3,5-F2)][aThr]P[Morpholine(3S-CO)]A[Pro(4R-Me)]; ester 2-C) | – | – | < 0.02 µM | >20 µM | 0.039 µM (≈ 0.0331 µg/mL) | 400 ± 10 nM
C[C@@H]1C[C@H]2C(=O)O[C@@H](C)[C@H](NC(=O)[C@H](Cc3cc(F)cc(F)c3)NC(=O)Nc3ccc4c(c3)CCN4C)C(=O)N3C[C@H](O)C[C@H]3C(=O)N3CCOC[C@H]3C(=O)N[C@@H](C)C(=O)N2C1 [Compound 315, (S)-3-(3,5-difluorophenyl)-N-((6aS,8R,12S,13S,15aS,17R,21S,23aS)-8-hydroxy-13,17,21-trimethyl-6,11,15,20,23-pentaoxooctadecahydro-6H,11H,15H-[1,4]oxazino[3,4-i]dipyrrolo[2,1-c:2′,1′-l][1]oxa[4,7,10,13]tetraazacyclohexadecin-12-yl)-2-(3-(1-methylindolin-5-yl)ureido)propanamide] ({NH(1-Me-indolin-5-yl)-CO}-[Phe(3,5-F2)][aThr][Hyp][Morpholine(3S-CO)]A[Pro(4R-Me)]; ester 2-C) | 0.625 µM (≈ 0.542 µg/mL) | 1060 ± 40 nM | 10 µM (≈ 8.67 µg/mL) | >20 µM | – | –
C[C@@H]1C[C@H]2C(=O)O[C@@H](C)[C@H](NC(=O)[C@H](Cc3cc(F)cc(F)c3)NC(=O)Nc3ccc(Cl)cc3F)C(=O)N3C[C@H](O)C[C@H]3C(=O)N3CCOC[C@H]3C(=O)N[C@@H](C)C(=O)N2C1 [Compound 316, (S)-2-(3-(4-chloro-2-fluorophenyl)ureido)-3-(3,5-difluorophenyl)-N-((6aS,8R,12S,13S,15aS,17R,21S,23aS)-8-hydroxy-13,17,21-trimethyl-6,11,15,20,23-pentaoxooctadecahydro-6H,11H,15H-[1,4]oxazino[3,4-i]dipyrrolo[2,1-c:2′,1′-l][1]oxa[4,7,10,13]tetraazacyclo-hexadecin-12-yl)propanamide] ({NH(4-Cl-2-F-phenyl)-CO}-[Phe(3,5-F2)][aThr][Hyp][Morpholine(3S-CO)]A[Pro(4R-Me)]; ester 2-C) | – | – | 0.156 µM (≈ 0.135 µg/mL) | >20 µM | 0.078 µM (≈ 0.0674 µg/mL) | 450 ± 20 nM
Cc1ccc(NC(=O)N[C@@H](Cc2cc(F)cc(F)c2)C(=O)N[C@H]2COC(=O)[C@@H]3C[C@@H](C)CN3C(=O)[C@H](C)NC(=O)[C@@H]3COCCN3C(=O)[C@@H]3C[C@@H](O)CN3C2=O)cc1 [Compound 317, (S)-3-(3,5-difluorophenyl)-N-((6aS,8R,12S,15aS,17R,21S,23aS)-8-hydroxy-17,21-dimethyl-6,11,15,20,23-pentaoxooctadecahydro-6H,11H,15H-[1,4]oxazino[3,4-i]dipyrrolo[2,1-c:2′,1′-l][1]oxa[4,7,10,13]tetraazacyclohexadecin-12-yl)-2-(3-(p-tolyl)ureido)propanamide] ({NH(4-Me-phenyl)-CO}-[Phe(3,5-F2)]S[Hyp][Morpholine(3S-CO)]A[Pro(4R-Me)]; ester 2-C) | 0.313 µM (≈ 0.254 µg/mL) | 380 ± 30 nM | 12.5 µM (≈ 10.1 µg/mL) | 12.5 µM | – | –
C[C@@H]1C[C@H]2C(=O)O[C@@H](C)[C@H](NC(=O)[C@H](Cc3cc(F)cc(F)c3)NC(=O)Nc3ccc4c(c3)OCO4)C(=O)N3C[C@H](O)C[C@H]3C(=O)N3CCOC[C@H]3C(=O)N[C@@H](C)C(=O)N2C1 [Compound 319, (S)-2-(3-(benzo[d][1,3]dioxol-5-yl)ureido)-3-(3,5-difluorophenyl)-N-((6aS,8R,12S,13S,15aS,17R,21S,23aS)-8-hydroxy-13,17,21-trimethyl-6,11,15,20,23-pentaoxooctadecahydro-6H,11H,15H-[1,4]oxazino[3,4-i]dipyrrolo[2,1-c:2′,1′-l][1]oxa[4,7,10,13]tetraazacyclo-hexadecin-12-yl)propanamide] ({NH(1,3-benzodioxol-5-yl)-CO}-[Phe(3,5-F2)][aThr][Hyp][Morpholine(3S-CO)]A[Pro(4R-Me)]; ester 2-C) | – | – | 25 µM (≈ 21.4 µg/mL) | 25 µM | 0.313 µM (≈ 0.268 µg/mL) | 450 ± 40 nM
